From US9938281B2 (Merck Sharp & Dohme Corp., priority 2012, dated 2018)

Assays:
PI3K-alpha = biological target: T1, PI3K-alpha (Homo sapiens, UniProt P42336); experiment: HTRF PI3K biochemical assay, alpha isoform; conditions: ratio PI3K-alpha IC50 value / PI3K-delta IC50 value
T1 construct: purchased Upstate; Millipore 14-602

PI3K-delta = biological target: T2, PI3K-delta (Homo sapiens, UniProt O00329); experiment: HTRF PI3K biochemical assay, delta isoform; conditions: form screened (neutral or TFA salt) given, read-out: PI3Kdelta IC50
T2 construct: purchased Upstate; Millipore 14-604
T2 sequence (O00329 whole entry, canonical isoform): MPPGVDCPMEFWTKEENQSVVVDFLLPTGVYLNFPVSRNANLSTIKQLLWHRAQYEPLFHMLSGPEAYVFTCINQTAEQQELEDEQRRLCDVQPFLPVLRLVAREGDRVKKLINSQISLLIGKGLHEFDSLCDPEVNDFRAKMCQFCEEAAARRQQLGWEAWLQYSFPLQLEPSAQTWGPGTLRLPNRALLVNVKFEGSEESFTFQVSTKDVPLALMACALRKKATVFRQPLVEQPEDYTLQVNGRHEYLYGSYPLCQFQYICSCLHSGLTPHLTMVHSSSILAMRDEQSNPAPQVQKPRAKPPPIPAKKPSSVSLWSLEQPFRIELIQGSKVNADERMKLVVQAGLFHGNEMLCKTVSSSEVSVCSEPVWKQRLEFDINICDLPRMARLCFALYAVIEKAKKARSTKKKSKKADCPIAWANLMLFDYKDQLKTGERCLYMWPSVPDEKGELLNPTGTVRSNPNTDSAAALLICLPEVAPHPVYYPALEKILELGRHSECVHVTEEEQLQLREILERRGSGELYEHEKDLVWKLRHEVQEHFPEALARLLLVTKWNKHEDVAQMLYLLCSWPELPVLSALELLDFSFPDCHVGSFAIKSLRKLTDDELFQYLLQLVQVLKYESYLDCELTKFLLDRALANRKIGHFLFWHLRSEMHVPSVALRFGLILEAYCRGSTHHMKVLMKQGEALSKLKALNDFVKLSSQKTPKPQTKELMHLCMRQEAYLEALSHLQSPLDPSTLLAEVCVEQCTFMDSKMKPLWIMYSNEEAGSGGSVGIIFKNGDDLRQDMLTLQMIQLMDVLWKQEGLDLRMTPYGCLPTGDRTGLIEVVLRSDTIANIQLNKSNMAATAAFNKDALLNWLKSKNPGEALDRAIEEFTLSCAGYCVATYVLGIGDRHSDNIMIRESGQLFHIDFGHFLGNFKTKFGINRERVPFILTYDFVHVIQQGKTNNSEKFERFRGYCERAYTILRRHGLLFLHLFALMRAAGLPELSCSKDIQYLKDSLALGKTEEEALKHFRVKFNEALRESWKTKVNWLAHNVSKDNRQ
T2 sequence (P27986 whole entry partner, canonical isoform): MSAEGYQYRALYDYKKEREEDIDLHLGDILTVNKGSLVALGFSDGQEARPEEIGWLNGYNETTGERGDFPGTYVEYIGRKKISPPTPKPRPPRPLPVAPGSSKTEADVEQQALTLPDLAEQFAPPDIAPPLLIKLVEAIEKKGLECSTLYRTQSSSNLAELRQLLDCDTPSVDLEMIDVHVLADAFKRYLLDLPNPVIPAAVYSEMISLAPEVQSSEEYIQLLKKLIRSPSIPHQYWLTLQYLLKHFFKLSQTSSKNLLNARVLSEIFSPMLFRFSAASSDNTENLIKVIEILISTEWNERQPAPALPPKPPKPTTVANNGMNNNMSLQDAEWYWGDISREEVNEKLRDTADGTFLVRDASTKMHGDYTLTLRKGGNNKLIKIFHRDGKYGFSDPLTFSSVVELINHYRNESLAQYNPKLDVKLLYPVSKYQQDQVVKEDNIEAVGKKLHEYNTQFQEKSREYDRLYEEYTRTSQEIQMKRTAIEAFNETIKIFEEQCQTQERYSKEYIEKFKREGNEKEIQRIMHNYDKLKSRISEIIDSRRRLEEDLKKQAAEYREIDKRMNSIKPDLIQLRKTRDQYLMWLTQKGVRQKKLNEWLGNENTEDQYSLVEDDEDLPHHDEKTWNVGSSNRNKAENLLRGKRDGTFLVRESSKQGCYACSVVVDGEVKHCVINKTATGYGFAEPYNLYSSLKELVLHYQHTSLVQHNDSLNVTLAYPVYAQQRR

T1 sequence (P42336 whole entry, canonical isoform): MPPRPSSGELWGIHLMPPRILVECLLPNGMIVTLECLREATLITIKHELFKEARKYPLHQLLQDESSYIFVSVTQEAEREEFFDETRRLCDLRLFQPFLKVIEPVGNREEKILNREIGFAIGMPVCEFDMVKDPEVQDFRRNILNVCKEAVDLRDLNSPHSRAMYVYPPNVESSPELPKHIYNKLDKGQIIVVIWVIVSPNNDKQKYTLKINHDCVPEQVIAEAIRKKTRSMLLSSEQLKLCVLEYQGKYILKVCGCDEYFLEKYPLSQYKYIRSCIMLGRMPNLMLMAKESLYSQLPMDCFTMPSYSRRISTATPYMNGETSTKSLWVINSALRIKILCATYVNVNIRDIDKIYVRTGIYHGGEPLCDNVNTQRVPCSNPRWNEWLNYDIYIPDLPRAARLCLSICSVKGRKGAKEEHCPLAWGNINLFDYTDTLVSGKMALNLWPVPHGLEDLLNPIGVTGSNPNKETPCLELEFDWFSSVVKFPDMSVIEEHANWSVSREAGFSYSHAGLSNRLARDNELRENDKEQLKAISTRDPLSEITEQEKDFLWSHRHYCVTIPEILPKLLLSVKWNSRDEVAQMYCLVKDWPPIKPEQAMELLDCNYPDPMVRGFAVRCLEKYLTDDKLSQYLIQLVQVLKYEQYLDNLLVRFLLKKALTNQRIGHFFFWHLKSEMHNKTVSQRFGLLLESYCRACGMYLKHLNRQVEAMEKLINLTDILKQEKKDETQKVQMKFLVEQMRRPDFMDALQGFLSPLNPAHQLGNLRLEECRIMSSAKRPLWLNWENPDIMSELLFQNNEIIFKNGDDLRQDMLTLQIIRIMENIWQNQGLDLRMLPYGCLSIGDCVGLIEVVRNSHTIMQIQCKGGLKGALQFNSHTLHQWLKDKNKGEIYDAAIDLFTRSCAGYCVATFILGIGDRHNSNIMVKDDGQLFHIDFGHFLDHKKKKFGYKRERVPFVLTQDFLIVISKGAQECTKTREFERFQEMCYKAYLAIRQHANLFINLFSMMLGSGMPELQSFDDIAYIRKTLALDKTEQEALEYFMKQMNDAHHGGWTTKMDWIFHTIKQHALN
T1 sequence (P27986 whole entry partner, canonical isoform): as the sequence (P27986 whole entry partner, canonical isoform) above

SMILES	Selectivity versus PI3Kalpha (PI3K-alpha)	IC50 (PI3K-delta) [nM]
CCn1c(-c2cnc(C)nc2)nc2c(N[C@H]3CCN(C(=O)C4CC4(C)C)C3)ncnc21 (mixture of isomers) [Compound 2-56, N-{(3S)-1-[((R and S)-2,2-dimethylcyclopropyl)carbonyl]pyrrolidin-3-yl}-9-ethyl-8-(2-methylpyrimidin-5-yl)-9H-purin-6-amine]	>10	1
CCn1c(-c2cnc(C)nc2)nc2c(N[C@H]3CCN(C(=O)C4CCC(=O)N4)C3)ncnc21 (mixture of isomers) [Compound 2-64, (R and S)-5-{[(3S)-3-{[9-ethyl-8-(2-methylpyrimidin-5-yl)-9H-purin-6-yl]amino}pyrrolidin-1-yl]carbonyl}pyrrolidin-2-one]	>10	6.7
CCn1c(-c2cnc(C)nc2)nc2c(N[C@H]3CCN(C(=O)C4NC(=O)C4(C)C)C3)ncnc21 (mixture of isomers) [Compound 2-67, (R and S)-4-{[(3S)-3-{[9-ethyl-8-(2-methylpyrimidin-5-yl)-9H-purin-6-yl]amino}pyrrolidin-1-yl]carbonyl}-3,3-dimethylazetidin-2-one]	>10	1.5
CCn1c(-c2cnc(C)nc2)nc2c(N[C@H]3CCN(C(=O)C4(C)CCCO4)C3)ncnc21 (mixture of isomers) [Compound 2-68, 9-ethyl-8-(2-methylpyrimidin-5-yl)-N-{(3S)-1-[((S and R)-2-methyltetrahydrofuran-2-yl)carbonyl]pyrrolidin-3-yl}-9H-purin-6-amine]	>10	26
CCn1c(-c2cnc(C)nc2)nc2c(N[C@H]3CCN(C(=O)C4CC(=O)N(C(C)C)C4)C3)ncnc21 (mixture of isomers) [Compound 2-81, (R and S)-4-{[(3S)-3-{[9-ethyl-8-(2-methylpyrimidin-5-yl)-9H-purin-6-yl]amino}pyrrolidin-1-yl]carbonyl}-1-(1-methylethyl)pyrrolidin-2-one]	>10	13
CCn1c(-c2cnc(C)nc2)nc2c(N[C@H]3CCN(C(=O)C4CCCCN4)C3)ncnc21 (mixture of isomers) [Compound 2-83, 9-ethyl-8-(2-methylpyrimidin-5-yl)-N-[(3S)-1-((R and S)-piperidin-2-ylcarbonyl)pyrrolidin-3-yl]-9H-purin-6-amine]	>10	19
CCn1c(-c2cnc(C)nc2)nc2c(N[C@H]3CCN(C(=O)C4C5CCNC54)C3)ncnc21 (mixture of isomers) [Compound 2-85, N-[(3S)-1-(1(R and S), 5(R and S), 6(R and S)-2-azabicyclo[3.1.0]hex-6-ylcarbonyl)pyrrolidin-3-yl]-9-ethyl-8-(2-methylpyrimidin-5-yl)-9H-purin-6-amine]	>10	7.3
CCn1c(-c2cnc(C)nc2)nc2c(NC3CN(C(=O)C4CC4)CC3(C)C)ncnc21 (racemic) [Compound 2-95, (R and S)-N-[1-(cyclopropylcarbonyl)-4,4-dimethylpyrrolidin-3-yl]-9-ethyl-8-(2-methylpyrimidin-5-yl)-9H-purin-6-amine]	>10	4.5
CCn1c(-c2cnc(C)nc2)nc2c(N[C@@H]3CN(C(=O)C4CC4)C[C@H]3O)ncnc21 (racemic) [Compound 2-96, 1-(cyclopropylcarbonyl)-4-{(3R,4R) and (3S,4S)-[9-ethyl-8-(2-methylpyrimidin-5-yl)-9H-purin-6-yl]amino}pyrrolidin-3-ol]	>10	6
CCn1c(-c2cnc(C)nc2)nc2c(NC3CN(C(=O)C4CC4)CC3C)ncnc21 (racemic) [Compound 3-16, N-[(3R,4R and 3S,4S)-1-(cyclopropylcarbonyl)-4-methylpyrrolidin-3-yl]-9-ethyl-8-(2-methylpyrimidin-5-yl)-9H-purin-6-amine]	>10	3.4
CCn1c(-c2cnc(C)nc2)nc2c(NC3CN(C(=O)C4CC4)CC34CC4)ncnc21 (racemic) [Compound 3-17, (R and S)-N-[5-(cyclopropylcarbonyl)-5-azaspiro[2.4]hept-7-yl]-9-ethyl-8-(2-methylpyrimidin-5-yl)-9H-purin-6-amine]	>10	< 1
CCn1c(-c2cnc(C)nc2)nc2c(NC3(C)CCN(C(=O)C4CC4)C3)ncnc21 (racemic) [Compound 3-18, N-[(R and S)-1-(cyclopropylcarbonyl)-3-methylpyrrolidin-3-yl]-9-ethyl-8-(2-methylpyrimidin-5-yl)-9H-purin-6-amine]	>10	2.6
CCC1CN(C(=O)C2CC2)CC1Nc1ncnc2c1nc(-c1cnc(C)nc1)n2CC (racemic) [Compound 3-19, N-[(3R,4S and 3S,4R)-1-(cyclopropylcarbonyl)-4-ethylpyrrolidin-3-yl]-9-ethyl-8-(2-methylpyrimidin-5-yl)-9H-purin-6-amine]	>10	3.8
CCn1c(-c2cnc(C)nc2)nc2c(NC3CN(C(=O)C4CC4)CC3C(F)(F)F)ncnc21 (racemic) [Compound 3-22, N-[(3R,4S and 3S,4R)-1-(cyclopropylcarbonyl)-4-(trifluoromethyl)pyrrolidin-3-yl]-9-ethyl-8-(2-methylpyrimidin-5-yl)-9H-purin-6-amine]	>10	2.9
CCn1c(-c2cnc(C)nc2)nc2c(NC3CN(C(=O)C4CC4)CC3F)ncnc21 (racemic) [Compound 3-26, N-[(3R,4S and 3S,4R)-1-(cyclopropylcarbonyl)-4-fluoropyrrolidin-3-yl]-9-ethyl-8-(2-methylpyrimidin-5-yl)-9H-purin-6-amine]	>10	34
CCn1c(-c2cnc(C)nc2)nc2c(N[C@H]3CCN(C(=O)N4CCC4C)C3)ncnc21 (mixture of isomers) [Compound 12-3, 9-ethyl-N-{(3S)-1-[((S and R)-2-methylazetidin-1-yl)carbonyl]pyrrolidin-3-yl}-8-(2-methylpyrimidin-5-yl)-9H-purin-6-amine]	>10	1.6
CCn1c(-c2cnc(C)nc2)nc2c(N[C@H]3CCN(C(=O)NCC4CCS(=O)(=O)C4)C3)ncnc21 (mixture of isomers) [Compound 12-20, (3S)-N-[((S and R)-1,1-dioxidotetrahydrothiophen-3-yl)methyl]-3-{[9-ethyl-8-(2-methylpyrimidin-5-yl)-9H-purin-6-yl]amino}pyrrolidine-1-carboxamide]	>10	9.4
CCn1c(-c2cnc(C)nc2)nc2c(N[C@H]3CCN(C(=O)OC4CCS(=O)(=O)C4)C3)ncnc21 (mixture of isomers) [Compound 13-6, (S and R)-1,1-dioxidotetrahydrothiophen-3-yl (3S)-3-{[9-ethyl-8-(2-methylpyrimidin-5-yl)-9H-purin-6-yl]amino}pyrrolidine-l-carboxylate]	>10	4.6
CCC(C)OC(=O)N1CC[C@H](Nc2ncnc3c2nc(-c2cnc(C)nc2)n3CC)C1 (mixture of isomers) [Compound 13-9, (S and R)-1-methylpropyl (3S)-3-{[9-ethyl-8-(2-methylpyrimidin-5-yl)-9H-purin-6-yl]amino}pyrrolidine-1-carboxylate]	>10	3.5
CCCN1CC(Nc2ncnc3c2nc(-c2cnn(CC)c2C)n3C)CC1=O (racemic) [Compound 14-1, 4(S and R)-{[8-(1-ethyl-5-methyl-1H-pyrazol-4-yl)-9-methyl-9H-purin-6-yl]amino}-1-propylpyrrolidin-2-one]	>10	11
C=C(C)CN1CC(Nc2ncnc3c2nc(-c2cnn(CC)c2C)n3C)CC1=O (racemic) [Compound 14-2, 4(S and R)-{[8-(1-ethyl-5-methyl-1H-pyrazol-4-yl)-9-methyl-9H-purin-6-yl]amino}-1-(2-methylprop-2-en-1-yl)pyrrolidin-2-one]	>10	10
CCn1ncc(-c2nc3c(NC4CC(=O)N(CC(C)C)C4)ncnc3n2C)c1C (racemic) [Compound 14-3, 4(S and R)-{[8-(1-ethyl-5-methyl-1H-pyrazol-4-yl)-9-methyl-9H-purin-6-yl}amino}-1-(2-methylpropyl)pyrrolidin-2-one]	>10	5.4
CCCN1CC(Nc2ncnc3c2nc(-c2cnc(C)nc2)n3CC)CC1=O (racemic) [Compound 14-4, 4(S and R)-{[9-ethyl-8-(2-methylpyrimidin-5-yl)-9H-purin-6-yl]amino}-1-propylpyrrolidin-2-one]	>10	24
CCCN1CC(Nc2ncnc3c2nc(-c2cnc(C)nc2)n3CC)CCC1=O (racemic) [Compound 14-5, 5(S and R)-{[9-ethyl-8-(2-methylpyrimidin-5-yl)-9H-purin-6-yl]amino}-1-propylpiperidin-2-one]	>10	21
CCn1c(-c2cnc(C)nc2)nc2c(NC3CN(C(=O)C4CC4)CC3(F)F)ncnc21 (single isomer, unassigned) [Compound 2-26, N-[(3S or 3R)-1-(cyclopropylcarbonyl)-4,4-difluoropyrrolidin-3-yl]-9-ethyl-8-(2-methylpyrimidin-5-yl)-9H-purin-6-amine]	>10	10
CCn1c(-c2cnc(C)nc2)nc2c(N[C@H]3CCN(C(=O)C4CCCO4)C3)ncnc21 (single isomer, unassigned) [Compound 2-32, 9-ethyl-8-(2-methylpyrimidin-5-yl)-N-[(3S)-1-((S or R)-tetrahydrofuran-2-ylcarbonyl)pyrrolidin-3-yl]-9H-purin-6-amine]	>10	3.1
CCn1c(-c2cnc(C)nc2)nc2c(N[C@H]3CCN(C(=O)C4CC45CCCC5)C3)ncnc21 (single isomer, unassigned) [Compound 2-34, 9-ethyl-8-(2-methylpyrimidin-5-yl)-N-[(3S)-1-((R or S)-spiro[2.4]hept-1-ylcarbonyl)pyrrolidin-3-yl]-9H-purin-6-amine]	>10	11
